We go through eleven molecules from PMC5845645, “QSAR-Driven Design and Discovery of Novel Compounds With Antiplasmodial and Transmission Blocking Activities” (Frontiers in Pharmacology, 2018).

As usually defined, the IC50 is the concentration that gives 50% inhibition. Usually CC50 stands for the concentration at which the toxic effect on the cells reaches its halfway point. Usually inhibition stands for how much of the control response was suppressed. Read a low inhibition as a response near the control.

The subject of one series is P. falciparum 3D7. Description: Growth inhibition by SYBR Green I, chloroquine-sensitive strain. It is filed as cell-based. The conditions noted are these: Plasmodium falciparum, read-out: IC50 3D7. As to the method:
(§1) Chloroquine-sensitive (3D7) and multidrug-resistant (W2) strains were cultured in RPMI 1640 medium supplemented with 0.05 mg/mL gentamycin, 38.4 mM HEPES, 0.2% sodium bicarbonate, and 10% O^+ human serum, as previously described in a standardized protocol ([Trager and Jensen, 1976]). Then, erythrocytes were added to the culture to obtain a 5% hematocrit, and incubated at 37°C under 5% CO2 atmosphere, with daily exchange of medium. The parasitemia was monitored daily in smears stained with Giemsa. Synchronic cultures in the ring stage were obtained by two consecutive treatments at 48 h intervals with a 5% solution of D-sorbitol ([Lambros and Vanderberg, 1979]).
(§2) Parasites synchronized at the ring stage, with 0.5% parasitemia and 2% hematocrit were distributed in each well, separately. The compounds were tested in triplicates, using 12 point of concentration, prepared in two-fold dilution (40 μM – ∼0.019 μM) over 72 h. Chloroquine and pyrimethamine were used as control. Subsequently, the in vitro susceptibility of parasite to tested drugs was measured by SYBR Green according to [Hartwig et al. (2013)]. Briefly, 100 μL of lysis buffer (20 mM Tris, 5 mM EDTA, 0.008% wt/vol saponin, 0.08% vol/vol Triton X-100, and 0.4 μL/mL of SYBR Green) were added in each well of a new black 96-well plate and 100 μL of parasite culture incubated with drugs were added. After homogenization, the plates were incubated for 1 h in the dark. Fluorescence was measured at 490 nm excitation and 540 nm emission (CLARIOstar, Labtech BMG). The IC50 was calculated by plotting the Log doses vs. Inhibition (expressed as a percentage relative to the control) in Prism 6 (GraphPad Software Inc.).

The subject of another series is P. falciparum W2. In words: Growth inhibition by SYBR Green I, multidrug-resistant strain. Particulars: Plasmodium falciparum, read-out: IC50 W2. It counts as cell-based. As to the method: as §1, §2
Another series concerns the target PfdUTPase. Set-up: method as in earlier work. Particulars: pKi = -logKi of literature Ki, ref Nguyen et al., 2005, 2006, Whittingham et al., McCarthy et al., 2009, Baragaña et al., 2011, Hampton et al., Ruda et al.; cited from earlier work.
Series [1] is described as follows: Cytotoxicity assay (MTT reduction). It is filed as cell-based, monkey. The conditions noted are these: monkey; COS7 cells, 72 h. How it is done: (§3) Cytotoxicity assays used COS7 cells (fibroblast-like cell lines derived from monkey kidney tissue), grown in DMEM medium supplemented with 10% fetal bovine serum and 0.05 mg/mL gentamicin in atmosphere containing 5% CO2 at 37°C. Drug cytotoxicity in COS7 cells was determined in duplicate, using 12 point of concentration, prepared in two-fold dilution (200 μM – ∼ 0.097 μM). After the incubation period (72 h), the cell viability analysis were done by the MMT reduction method (3-[4,5-dimethyl-thiazol-2-yl]-2,5-diphenyltetrazolium […] ([Mosmann, 1983]). The optical density was determined at 570 nm (CLARIOstar, Labtech BMG) and the 50% cytotoxicity concentrations (CC50) was expressed as the percent viability relative to the control. The selectivity index of the compounds was determined by the following expression:
(§4) Where COS7 CC50 corresponds to the 50% cytotoxic concentration on COS7 cells and Pf IC50 is the 50 % inhibitory concentration on P. falciparum (3D7).

The next series relates to COS7 cells. In words: Cytotoxicity assay (MTT reduction). It counts as cell-based, monkey. Particulars: selectivity index = COS7 CC50 / Pf IC50 (3D7). How it is done:
as §3, §4
(Tetrazolium assays rely on reduction of a dye to a coloured formazan, in cell work by metabolically active cells.)

On the set-up of series [2]: method as in Hit2Lead library. The conditions noted are these: calculated; ref Hit2Lead library; cited from earlier work.
The subject of a further series is P. berghei ANKA. In words: Ookinete assay (gametocyte to ookinete conversion). Particulars: Plasmodium berghei, 24 h, 21°C, ookinete formation relative to DMSO control. It is filed as cell-based. As to the method: All animal procedures were carried out in accordance to the Brazilian College of Animal Experimentation (COBEA). This research protocol was approved by the Ethics Committee of the Institute of Biomedical Sciences – University of Sao Paulo, protocol number 132/2014-CEUA. C57BL/6 mice received an intraperitoneal injection of P. berghei ANKA infected erythrocytes, and four days after infection, a mouse with parasitemia between 4 and 6% and gametocytemia > 0.4% was selected as blood donor for cardiac puncture. Four microliters of the infected blood was dispensed in 80 μl of ookinete medium ([Blagborough et al., 2012]) at 21°C with DMSO control or with 10 μM of the tested compounds. The assay was incubated at 21°C for 24 h and 2 μl of the blood at the bottom of the tubes was spread onto a glass slide, stained with Giemsa and analyzed under a direct light microscope. The total number of formed ookinetes were counted in each slide (triplicate for each condition), and inhibition was calculated in relation to the total ookinetes formed in the control condition.

Where [3] appears, read: asexual blood stage, chloroquine-sensitive 3D7, 72 h.
Setting [4] is: asexual blood stage, multidrug-resistant W2, 72 h.

SMILES strings stand for the structures. Where two headings read alike, the source gives them in different places.

As for `CCN(CC)CCCC(C)Nc1ccnc2cc(Cl)ccc12` (stereo not drawn) [Chloroquine, reference compound], the IC50 amounted to 0.011 ± 0.0006 µM in the series on P. falciparum 3D7 (3D7, 72 h) and 0.181 ± 0.027 µM with P. falciparum W2 (W2, 72 h).

Consider `O=c1ccn(C2CC(O)C(CNC(c3ccccc3)(c3ccccc3)c3ccccc3)O2)c(=O)[nH]1` (stereo not drawn) [Compound 1], for which the “PfdUTPase inhibition (pKi)” value on PfdUTPase was 6.70.

On to `O=c1ccn([C@H]2C[C@H](O)[C@@H](CNC(c3ccccc3)c3ccccc3)O2)c(=O)[nH]1` [Compound 3, 2′,5′-dideoxy-5′-[(diphenylmethyl)amino]uridine], for which the “PfdUTPase inhibition (pKi)” value on PfdUTPase was 6.70.

In the case of `O=C(O)CCCNC(=O)C(CCOC(c1ccccc1)(c1ccccc1)c1ccccc1)Cn1ccc(=O)[nH]c1=O` (stereo not drawn) [Compound 4], the “PfdUTPase inhibition (pKi)” value on PfdUTPase was 6.70.

Turning to `N#Cc1ccc(C(OCC2OC(n3ccc(=O)[nH]c3=O)CC2O)(c2ccccc2)c2ccccc2)cc1` (stereo not drawn) [Compound 20], on PfdUTPase, the “PfdUTPase inhibition (pKi)” value is on record as 6.03.

As for `CC(C)(C)[Si](C)(C)OC1CC(n2ccc(=O)[nH]c2=O)OC1CNP(=O)(Oc1ccccc1)Oc1ccccc1` (stereo not drawn) [Compound 87], the “PfdUTPase inhibition (pKi)” value on PfdUTPase is on record as 4.17.

Regarding `CC(C)(C)[Si](C)(C)OC1CC(n2ccc(=O)[nH]c2=O)OC1CO` (stereo not drawn) [Compound 127], the “PfdUTPase inhibition (pKi)” value on PfdUTPase is reported as 3.19.

`COc1ccc(C(OCC2OC3C(Oc4nc(=O)ccn43)C2O)(c2ccccc2)c2ccc(OC)cc2)cc1` (stereo not drawn) [LabMol-144]: in series [1], the midpoint of cytotoxicity, the CC50 at 72 h, lay at 81.7 ± 25.7 µM. Besides, the SI with COS7 cells is given as 11.7. Also, the logS in series [2] is on record as −5.36. In addition, the half-maximal inhibitory concentration (IC50) turned out to be 7.1 ± 2.53 µM in the series on P. falciparum 3D7 (setting [3]) and 4.23 ± 1.18 µM in the series on P. falciparum W2 (setting [4]). The molecule further yielded an inhibition at 10 µM with P. berghei ANKA of 44.6 ± 2.4%.

As to `COc1ccc2c(c1)c(/C=C/c1nc3ccccc3c(=O)n1-c1ccccc1)c(C)n2C` [LabMol-145], in series [1], the CC50 at 72 h is 46 ± 13.4 µM. The same molecule showed an SI in the series with COS7 cells of 2.7. In series [2], the logS is given as −6.74. The IC50 in the series with P. falciparum 3D7 (setting [3]) worked out at 17.1 ± 16.2 µM; in the series on P. falciparum W2 (setting [4]), 15.3 ± 3.29 µM. The molecule also gave an inhibition at 10 µM in the series on P. berghei ANKA of 13.2 ± 24%.

In turn, `COc1ccc(C(OCC2OC(n3ccc(=O)[nH]c3=O)C(O)C2O)(c2ccccc2)c2ccccc2)cc1` (stereo not drawn) [LabMol-146] returned a CC50 at 72 h in series [1] of 52 ± 16.4 µM. Further, the logS in series [2] is −5.04. For the same molecule, the IC50 was determined as 6.1 ± 1.95 µM in the series on P. falciparum 3D7 (setting [3]) and 3.2 ± 2.12 µM in the series on P. falciparum W2 (setting [4]). In addition, the inhibition at 10 µM in the series with P. berghei ANKA stood at 7.3 ± 7.3%.

In the case of `CCc1nc(N)nc(N)c1-c1ccc(Cl)cc1` [Pyrimethamine, reference compound], the IC50 is 0.044 ± 0.009 µM in the series on P. falciparum 3D7 (setting [3]) and 14.7 ± 3.94 µM with P. falciparum W2 (setting [4]).
